# From the supplement of paper PMC10307832
# Legend:
# Assay in all cases: relative viability (nuclei count vs DMSO), 5 days (fraction); higher = more cells survive
# [1] = compound: CC(C)C[C@@H](C(=O)N[C@H](C(=O)OC1CCCC1)c1ccccc1)[C@H](O)C(=O)NO [Tosedostat] + CC(C)C[C@H](NC(=O)[C@H](Cc1ccccc1)NC(=O)c1cnccn1)B(O)O [Bortezomib] (partner 0.002 µM)
# Outline: (§1)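 Lung cancer cell lines were seeded in 1536-well plates and dosed by pin tool the next day, with either a single drug or a fixed anchor-drug dose combined with five library-drug doses (not always all listed) spaced in √10 steps. Five days later, one step fixed the cells and stained their nuclei (final 0.05% Triton X-100, 1% formaldehyde, 1 ug/ml Hoechst), and nuclei were counted on 4× images. Relative viability is the nuclei count in treated wells divided by the count in vehicle wells, and each value is the median of duplicate plates.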
# [2] = compound: CC(C)C[C@@H](C(=O)N[C@H](C(=O)OC1CCCC1)c1ccccc1)[C@H](O)C(=O)NO [Tosedostat] + CC1(C)CCC(c2ccc(Cl)cc2)=C(CN2CCN(c3ccc(C(=O)NS(=O)(=O)c4ccc(N[C@H](CCN5CCOCC5)CSc5ccccc5)c(S(=O)(=O)C(F)(F)F)c4)cc3)CC2)C1 [Navitoclax] (partner 0.5 µM)
# Outline: as §1
# [3] = compound: CC(C)C[C@@H](C(=O)N[C@H](C(=O)OC1CCCC1)c1ccccc1)[C@H](O)C(=O)NO [Tosedostat] + Nc1nc2[nH]cc(CCc3ccc(C(=O)N[C@@H](CCC(=O)O)C(=O)O)cc3)c2c(=O)[nH]1 [Pemetrexed] (partner 0.2 µM)
# Outline: as §1
# [4] = compound: CC1=NN=C(O1)C2=NN=C(C=C2)N3CCC(CC3)OC4=C(C=CC(=C4)F)Cl + N=C(N)NC(=N)NCCc1ccccc1 [Phenformin] (partner 250 µM)
# Outline: as §1
Cell Line,relative viability ([1]; first compound 0.02 µM),relative viability ([1]; first compound 0.06325 µM),relative viability ([1]; first compound 0.2 µM),relative viability ([1]; first compound 0.6325 µM),relative viability ([1]; first compound 2 µM),relative viability ([2]; first compound 0.02 µM),relative viability ([2]; first compound 0.06325 µM),relative viability ([2]; first compound 0.2 µM),relative viability ([2]; first compound 0.6325 µM),relative viability ([2]; first compound 2 µM),relative viability ([3]; first compound 0.02 µM),relative viability ([3]; first compound 0.06325 µM),relative viability ([3]; first compound 0.2 µM),relative viability ([3]; first compound 0.6325 µM),relative viability ([3]; first compound 2 µM),relative viability ([4]; first compound 0.253 µM),relative viability ([4]; first compound 0.8 µM),relative viability ([4]; first compound 2.53 µM),relative viability ([4]; first compound 8 µM)
HCC-78,0.496,0.497,0.473,0.555,0.563,0.717,0.808,0.736,0.868,0.948,0.923,1.02,0.838,0.895,0.922,0.619,0.59,0.541,0.497
HCC-366,1.05,1.03,1.03,1.07,1.04,1.15,1.01,1.02,1.01,1.11,0.194,0.183,0.285,0.351,0.317,0.286,0.285,0.309,0.288
HCC-827,1.1,1.04,1.07,1,1.01,1.01,1.03,1.06,1.03,0.86,0.24,0.265,0.255,0.318,0.353,0.388,0.258,0.354,0.36
HOP-62,0.719,0.931,0.805,0.526,0.498,1.19,1,1.01,1.02,0.914,0.34,0.328,0.38,0.431,0.472,0.592,0.352,0.411,0.349
LC-2-ad,1.15,0.971,1.01,0.906,0.791,0.614,0.419,0.473,0.386,0.264,0.299,0.303,0.289,0.277,0.251,0.496,0.489,0.51,0.472
LCLC-97TM1,0.529,0.696,0.537,0.336,0.193,0.559,,,0.633,0.293,0.176,0.175,0.192,0.203,0.254,0.501,0.396,0.427,0.437
LOU-NH91,0.5,0.545,0.484,0.564,0.44,0.753,0.657,0.615,0.543,0.483,0.394,0.478,0.447,0.487,0.444,0.64,0.598,0.69,0.679
LU99A,1.11,1.04,1.08,0.94,0.761,0.813,0.869,0.774,0.832,0.683,0.172,0.165,0.195,0.212,0.191,0.885,0.822,0.821,0.71
LXF-289,1.05,0.992,0.974,0.978,0.989,0.965,0.879,0.938,0.897,0.958,0.949,0.978,1.05,0.944,1.07,0.509,0.393,0.504,0.465
NCI-H23,1.11,0.959,0.846,0.687,0.463,0.765,0.872,0.885,0.57,0.528,0.745,0.702,0.691,0.725,0.361,0.829,,0.729,0.709
NCI-H322M,1.36,0.853,1.2,1.1,1.08,1.17,1.11,1.19,1.14,1.02,0.61,0.628,0.596,0.666,0.652,0.759,0.742,0.846,0.731
NCI-H441,0.471,0.396,0.332,0.396,0.404,1.01,0.477,0.421,0.576,0.339,0.228,0.246,0.275,0.266,0.309,0.715,0.498,0.699,0.619
NCI-H460,1.14,0.898,1.09,0.926,1.32,1.38,1.18,1.09,0.891,1.23,0.0658,0.062,0.0697,0.0606,0.0547,0.298,0.309,0.291,0.258
NCI-H520,0.348,0.519,0.508,0.449,0.76,1.19,1.3,1.14,1.08,1.4,0.728,0.773,0.743,0.782,0.734,0.509,0.414,0.741,0.578
NCI-H596,1.32,1.19,1,1.12,1.04,1.01,1.06,1.01,0.996,0.805,0.468,0.488,0.515,0.497,0.45,0.648,0.611,0.697,0.525
NCI-H647,1.03,0.947,0.788,1.07,0.829,1.25,1.22,0.936,1.08,1.14,0.178,0.163,0.167,0.196,0.179,0.441,0.446,0.408,0.2
